Test results: patent US20050288222A1, “Methods for enhancing the bioavailability of a drug” (priority 2000, published 2005)
In brackets after ≈: the same amount, converted by molar mass. Several values for one entry are separate records, joined by “and”; a condition that tells them apart may be missing. Identical values can stand only once. Like-named read-outs stand apart in the source and are kept apart here. Non-standard residues stand in square brackets, D forms with d. Residues, ends and D or L forms follow the SMILES beside them. *: point of attachment. X1 = CC(C)C[C@H](C(=O)*)N(C)C

Assays:
[1] = physchem
[2] = biological target: B-amyloid (Homo sapiens, UniProt P05067); assay: KD of potent B-amyloid aggregation inhibitors (Table II); assay type: binding
B-amyloid, sequence (P05067 672-711 limits assumed): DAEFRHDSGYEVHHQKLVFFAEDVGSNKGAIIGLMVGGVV

[3] = in vivo
[4] = in vivo; conditions: male, Sprague-Dawley, rat
Protocol: (§1) The drug cocktail was infused (100 μL/h) via a cannula in the external carotid artery so that the infusate was picked up by the blood and carried directly to the Circle of Willis/brain (via the left internal carotid artery, PTA occluded). At 30 minutes post cessation of the 10 minute IA infusion the left side of the brain was voided of blood by manually infusing 1 ml of saline via the cannula in the external carotid artery with the common carotid artery now ligated. The perfused left forebrain (choroid plexus removed) was subjected to capillary depiction (as described by Triguero et al., 1990) so as to produce brain supernatant that was void of blood vessels (as determined by alkaline phosphatase measurements).

[5] = rat, in vivo
[6] = rat, in vivo; remark: listed apart in the source
[7] = rat, in vivo; remark: listed apart in the source
Protocol: as §1

[8] = in vivo
[9] = Biodistribution of 3H-PPI-558 +/- cyclosporin A (experiment 4, Table III); conditions: for Kidney (expressed as % administered): rat, sac t = 61 min
[10] = rat, in vivo; remark: listed apart in the source
Description: The perfused, ipsilateral, left forebrain (choroid plexus removed) was subjected to capillary depletion (as described by Triguero et al., 1990) so as to produce brain supernatant that was void of blood vessels (as determined by alkaline phosphatase measurements).

[11] = rat, in vivo; remark: listed apart in the source

## CC(C)C[C@H](C(=O)N[C@@H](C(=O)N[C@H](Cc1ccccc1)C(=O)N[C@H](Cc1ccccc1)C(=O)N[C@H](CC(C)C)C(N)=O)C(C)C)N(C)C [PPI-1007, (CH3)2-lvffl-NH2] (X1-[dV][dF][dF][dL]-NH2)
[1]
  solubility: 180 µg/mL (≈ 271 µM)

## CC(C)C[C@@H](N)C(=O)N[C@H](Cc1ccccc1)C(=O)N[C@H](Cc1ccccc1)C(=O)N[C@@H](C(=O)N[C@H](CC(C)C)C(N)=O)C(C)C [PPI-578, H-lffvl-NH2]
[1]
  solubility: 2500 µg/mL (≈ 3930 µM)
[2]
  Kd: 0.29 nM

## CC(C)C[C@@H](N)C(=O)N[C@@H](C(=O)N[C@H](Cc1ccccc1)C(=O)N[C@H](Cc1ccccc1)C(=O)N[C@@H](C(N)=O)C(C)C)C(C)C [PPI-657, H-D-Leu-D-Val-D-Phe-D-Phe-D-Val-NH2] (H-[dL][dV][dF][dF][dV]-NH2)
[1]
  solubility: 970 µg/mL (≈ 1560 µM)
[2]
  Kd: 0.33 nM

## CC(C)C[C@@H](NC(=O)c1ccc(O)cc1)C(=O)N[C@@H](C(=O)N[C@H](Cc1ccccc1)C(=O)N[C@H](Cc1ccccc1)C(=O)N[C@H](C)C(N)=O)C(C)C [PPI-558, 4-Hydroxybenzoyl-D-Leu-D-Val-D-Phe-D-Phe-D-Ala-NH2]
[3]
  level at time molar: < 5 nM
[4]
  level at time molar at 0.5 h: > 100 nM
[5]
  plasma levels in the presence of cyclosporin A: elevated
[1]
  solubility: 1 µg/mL (≈ 1.4 µM)
[6]
  Cartass FOLD INCREASE: 4 fold
  Colon FOLD INCREASE: 4 fold
  Duodenum FOLD INCREASE: 6 fold
  Fat FOLD INCREASE: 2 fold
  Heart FOLD INCREASE: 3 fold
  Ileum FOLD INCREASE: 2 fold
  Liver FOLD INCREASE: 0.4 fold
  Lung FOLD INCREASE: 1 fold
  Muscle FOLD INCREASE: 5 fold
  Pancreas FOLD INCREASE: 7 fold
  Spleen FOLD INCREASE: 1 fold
  Tongue FOLD INCREASE: 5 fold
  Urine FOLD INCREASE: 1 fold
  blood at sac FOLD INCREASE: 6 fold
  levels within the small intestine in the presence of cyclosporin A: higher levels
[7]
  capillary bound level: approx. 250 nM equiv.
[8]
  capillary bound level: very low levels
[9]; PPI-558/DMPC (1:30) approx. 3 mg/kg IV, without cyclosporin A, MEAN
  Kidney (expressed as % administered): 0.95 % administered
[9]; PPI-558/DMPC (1:30) approx. 3 mg/kg IV, without cyclosporin A, single animals
  Kidney (expressed as % administered): 0.7 % administered and 1.7 % administered and 0.5 % administered
[9]; cyclosporin A 50 mg/kg IV + PPI-558/DMPC (1:30), MEAN
  Kidney (expressed as % administered): 2.59 % administered
[9]; cyclosporin A 50 mg/kg IV + PPI-558/DMPC (1:30), single animals, 50 mg/kg
  Kidney (expressed as % administered): 2.5 % administered and 2.7 % administered
[9]; with cyclosporin A versus without
  Kidney FOLD INCREASE: 3 fold
[10]
  elevation of brain levels in the presence of cyclosporin A: 10 fold

## CC(C)C[C@@H](N)C(=O)N[C@@H](C(=O)N[C@H](Cc1ccccc1)C(=O)NNC(=O)[C@@H](Cc1ccccc1)NC(=O)[C@H](NC(=O)[C@H](N)CC(C)C)C(C)C)C(C)C [PPI-1125, (H-lvf-NH-)2]
[1]
  solubility: 5000 µg/mL (≈ 6660 µM)

## CC(C)C[C@@H](N)C(=O)N[C@@H](C(=O)N[C@H](Cc1ccccc1)C(=O)N[C@H](Cc1ccccc1)C(=O)N[C@H](C)C(N)=O)C(C)C [PPI-465, H-lvffa-NH2]
[1]
  solubility: 1490 µg/mL (≈ 2510 µM)
[2]
  Kd: 0.92 nM

## CN[C@H](CC(C)C)C(=O)N[C@@H](C(=O)N[C@H](Cc1ccccc1)C(=O)N[C@H](Cc1ccccc1)C(=O)N[C@H](CC(C)C)C(N)=O)C(C)C [PPI-1019, N-methyl-(D-Leu-D-Val-D-Phe-D-Phe-D-Leu)-NH2]
[5]
  plasma levels in the presence of cyclosporin A: elevated
[1]
  solubility: 1000 µg/mL (≈ 1540 µM)
[11]
  levels within the liver in the presence of cyclosporin A: decreased levels
[10]
  elevation of brain levels in the presence of cyclosporin A: 5 fold
